# The source made the active and inactive calls. The rule behind the calls is not given here.
# Legend:
# Type in all cases: functional, organism-based
# [1] = test system: Mus musculus; assay: Antiepileptic activity in CF1 mouse assessed as inhibition of maximal electroshock-induced seizures at 300 mg/kg, ip after 0.5 hrs; design: dose 300 mg/kg
# [2] = test system: Mus musculus; assay: Antiepileptic activity in CF1 mouse assessed as inhibition of subcutaneous pentylenetetrazole-induced seizures at 30 mg/kg, ip after 0.5 hrs; design: dose 30 mg/kg
# [3] = test system: Mus musculus; assay: Neurotoxicity in CF1 mouse assessed as protection against motor impairment at 30 mg/kg, ip after 0.5 hrs by rotarod test; design: dose 30 mg/kg
# [4] = test system: Mus musculus; assay: Antiepileptic activity in CF1 mouse assessed as inhibition of maximal electroshock-induced seizures at 100 mg/kg, ip after 0.5 hrs; design: dose 100 mg/kg
# [5] = test system: Mus musculus; assay: Antiepileptic activity in CF1 mouse assessed as inhibition of subcutaneous pentylenetetrazole-induced seizures at 300 mg/kg, ip after 4 hrs; design: dose 300 mg/kg
# [6] = test system: Mus musculus; assay: Antiepileptic activity in CF1 mouse assessed as inhibition of subcutaneous pentylenetetrazole-induced seizures at 100 mg/kg, ip after 0.5 hrs; design: dose 100 mg/kg
# [7] = test system: Mus musculus; assay: Neurotoxicity in CF1 mouse assessed as protection against motor impairment at 300 mg/kg, ip after 4 hrs by rotarod test; design: dose 300 mg/kg
# [8] = test system: Mus musculus; assay: Neurotoxicity in CF1 mouse assessed as protection against motor impairment at 100 mg/kg, ip after 4 hrs by rotarod test; design: dose 100 mg/kg
# [9] = test system: Mus musculus; assay: Antiepileptic activity in CF1 mouse assessed as inhibition of subcutaneous pentylenetetrazole-induced seizures at 30 mg/kg, ip after 4 hrs; design: dose 30 mg/kg
# [10] = test system: Mus musculus; assay: Antiepileptic activity in CF1 mouse assessed as inhibition of subcutaneous pentylenetetrazole-induced seizures at 100 mg/kg, ip after 4 hrs; design: dose 100 mg/kg
# [11] = test system: Mus musculus; assay: Antiepileptic activity in CF1 mouse assessed as inhibition of maximal electroshock-induced seizures at 100 mg/kg, ip after 4 hrs; design: dose 100 mg/kg
# [12] = test system: Mus musculus; assay: Antiepileptic activity in CF1 mouse assessed as inhibition of maximal electroshock-induced seizures at 30 mg/kg, ip after 0.5 hrs; design: dose 30 mg/kg
# [13] = test system: Rattus norvegicus; assay: Antiallodynic activity in rat assessed as protection against spinal nerve ligation-induced neuropathic pain at 80 mg/kg, ip after 30 mins; design: dose 80 mg/kg
# [14] = test system: Mus musculus; assay: Antiepileptic activity in CF1 mouse assessed as inhibition of maximal electroshock-induced seizures at 30 mg/kg, ip after 4 hrs; design: dose 30 mg/kg
# [15] = test system: Mus musculus; assay: Neurotoxicity in CF1 mouse assessed as protection against motor impairment at 30 mg/kg, ip after 4 hrs by rotarod test; design: dose 30 mg/kg
# [16] = test system: Mus musculus; assay: Antiepileptic activity in CF1 mouse assessed as inhibition of maximal electroshock-induced seizures at 300 mg/kg, ip after 4 hrs; design: dose 300 mg/kg
# [17] = test system: Mus musculus; assay: Neurotoxicity in CF1 mouse assessed as protection against motor impairment at 300 mg/kg, ip after 0.5 hrs by rotarod test; design: dose 300 mg/kg
# [18] = test system: Mus musculus; assay: Antiepileptic activity in CF1 mouse assessed as inhibition of subcutaneous pentylenetetrazole-induced seizures at 300 mg/kg, ip after 0.5 hrs; design: dose 300 mg/kg
# [19] = test system: Rattus norvegicus; assay: Antiallodynic activity in rat assessed as protection against spinal nerve ligation-induced neuropathic pain at 80 mg/kg, ip after 240 mins; design: dose 80 mg/kg
# [20] = test system: Mus musculus; assay: Neurotoxicity in CF1 mouse assessed as protection against motor impairment at 100 mg/kg, ip after 0.5 hrs by rotarod test; design: dose 100 mg/kg
# [21] = test system: Rattus norvegicus; assay: Antiallodynic activity in rat assessed as protection against spinal nerve ligation-induced neuropathic pain at 80 mg/kg, ip after 60 mins; design: dose 80 mg/kg
SMILES,Activity [1],Activity [2],Activity [3],Activity [4],Activity [5],Activity [6],Activity [7],Activity [8],Activity [9],Activity [10],Activity [11],Activity [12],Activity [13],Activity [14],Activity [15],Activity [16],Activity [17],Activity [18],Activity [20],further results
CNC(=O)C(C(C)C)C(C)C,Active,inactive,inactive,inactive,inactive,inactive,inactive,inactive,inactive,inactive,inactive,inactive,inactive,inactive,inactive,inactive,,,,
CC(C)(C)C(N)=O,inactive,inactive,inactive,inactive,inactive,,inactive,inactive,inactive,inactive,inactive,inactive,,inactive,inactive,inactive,inactive,inactive,inactive,Activity [19]: inactive
CCC(C(N)=O)C(C)C (centres undefined),Active,inactive,inactive,inactive,inactive,inactive,inactive,inactive,inactive,inactive,inactive,inactive,,inactive,inactive,inactive,,inactive,inactive,
CCC(CC)C(N)=O,Active,inactive,inactive,,inactive,inactive,inactive,inactive,inactive,inactive,inactive,inactive,inactive,inactive,inactive,inactive,inactive,inactive,,Activity [21]: inactive
CCCC(CC)C(N)=O (centres undefined),Active,inactive,inactive,,inactive,inactive,inactive,inactive,inactive,inactive,inactive,inactive,,inactive,inactive,Active,,Active,inactive,
CC(C)C(C(=O)NC(N)=O)C(C)C,Active,inactive,,,inactive,Active,Active,inactive,inactive,inactive,inactive,inactive,,inactive,inactive,Active,Active,Active,,
CC(C)(C)C(=O)NC(N)=O,,,,,,,,,,,,,inactive,,,,,,,Activity [19]: inactive
CCC(CC(C)C)C(N)=O (centres undefined),Active,inactive,inactive,inactive,Active,inactive,inactive,inactive,inactive,inactive,inactive,inactive,inactive,inactive,inactive,inactive,Active,,inactive,
CCCC(CCC)C(=O)NC(N)=O,Active,inactive,,Active,inactive,Active,,inactive,inactive,inactive,inactive,inactive,,inactive,,Active,,Active,,
CC(C)C(C(N)=O)C(C)(C)C (centres undefined),Active,inactive,inactive,,Active,Active,Active,inactive,inactive,inactive,inactive,inactive,,inactive,inactive,Active,Active,Active,,
CC(C)CC(C(N)=O)C(C)C (centres undefined),inactive,inactive,inactive,inactive,inactive,inactive,inactive,inactive,inactive,inactive,inactive,inactive,,inactive,inactive,inactive,,Active,,Activity [19]: inactive
CCC(C)C(CC)C(=O)NC (centres undefined),inactive,inactive,inactive,inactive,inactive,inactive,inactive,inactive,inactive,inactive,inactive,inactive,inactive,inactive,inactive,inactive,,Active,,
CCCC(CC(C)C)C(N)=O (centres undefined),Active,inactive,inactive,inactive,inactive,inactive,inactive,inactive,inactive,inactive,inactive,inactive,,inactive,inactive,inactive,Active,Active,inactive,Activity [19]: inactive
CCCC(C(=O)NC)C(C)C (centres undefined),inactive,inactive,inactive,inactive,inactive,inactive,inactive,inactive,inactive,inactive,inactive,inactive,inactive,inactive,inactive,inactive,Active,Active,inactive,
CCCCC(CC)C(=O)NC (centres undefined),Active,inactive,inactive,,inactive,inactive,inactive,inactive,inactive,inactive,inactive,inactive,inactive,inactive,inactive,Active,Active,Active,inactive,
